Experimental findings from patent publication US9624215B2, “Amine derivative or salt thereof” (TOYAMA CHEMICAL CO., LTD., priority 2012, dated 2017) are described below.

The structures appear in SMILES notation.

This assay concerns normal human neonatal foreskin epidermal keratinocytes (NHEK-F). Put plainly: Cell proliferation inhibition test. Format: cell-based. The note with it: Keratinocyte, 72 h, NHEK-F cells, three days incubation, ATPlite or CellTiterGlo, read-out: IC50 (concentration of the compound at which the cell count is reduced by 50%). The method in brief:
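NHEK-F keratinocytes, 2×10^3 per well in Humedia-EG2, plated overnight, then exposed to compound for three days. Cell count by ATPlite or CellTiterGlo luminescence; inhibition = 100 − (treated/untreated count)×100, IC50 as 50% reduction concentration.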
Consider `Cn1ccc2cc(Nc3ncc(C4CC4)cc3C(=O)O)cc(-c3cccc(Cl)c3)c21` [Example 489, 2-((7-(3-chlorophenyl)-1-methyl-1H-indol-5-yl)amino)-5-cyclopropylnicotinic acid], for which the IC50 was ≤ 10 nM.
Consider `Cn1ccc2cc(Nc3ncc(C4CC4)cc3C(=O)O)cc(-c3ccc(Cl)cc3)c21` [Example 490, 2-((7-(4-chlorophenyl)-1-methyl-1H-indol-5-yl)amino)-5-cyclopropylnicotinic acid], for which the IC50 was ≤ 10 nM.
The figure for `Cn1ccc2cc(Nc3ncc(C4CC4)cc3C(=O)O)cc(-c3ccccc3OC(F)(F)F)c21` [Example 491, 5-cyclopropyl-2-((1-methyl-7-(2-(trifluoromethoxy)phenyl)-1H-indol-5-yl)amino)nicotinic acid] is ≤ 10 nM; for `Cn1ccc2cc(Nc3ncc(C4CC4)cc3C(=O)O)cc(-c3cccc(OC(F)(F)F)c3)c21` [Example 492, 5-cyclopropyl-2-((1-methyl-7-(3-(trifluoromethoxy)phenyl)-1H-indol-5-yl)amino)nicotinic acid] it is ≤ 10 nM.
The figure for `Cn1ccc2cc(Nc3ncc(C4CC4)cc3C(=O)O)cc(-c3ccc(OC(F)(F)F)cc3)c21` [Example 493, 5-cyclopropyl-2-((1-methyl-7-(4-(trifluoromethoxy)phenyl)-1H-indol-5-yl)amino)nicotinic acid] is ≤ 10 nM; for `O=C(O)c1cc(C2CC2)cnc1Nc1ccc2c(ccn2Cc2cccc(OC(F)(F)F)c2)c1` [Example 496, 5-cyclopropyl-2-((1-(3-(trifluoromethoxy)benzyl)-1H-indol-5-yl)amino)nicotinic acid] it is 10 to 100 nM; for `Cc1cc(C)cc(Cn2ccc3cc(Nc4ncc(C5CC5)cc4C(=O)O)ccc32)c1` [Example 498, 5-cyclopropyl-2-((1-(3,5-dimethylbenzyl)-1H-indol-5-yl)amino)nicotinic acid] it is ≤ 10 nM.
The figure for `O=C(O)c1cc(C2CC2)cnc1Nc1ccc2c(ccn2Cc2cc(C(F)(F)F)cc(C(F)(F)F)c2)c1` [Example 499, 2-((1-(3,5-bis(trifluoromethyl)benzyl)-1H-indol-5-yl)amino)-5-cyclopropylnicotinic acid] is ≤ 10 nM; for `Cn1ccc2cc(Nc3ncc(C4CC4)cc3C(=O)O)cc(-c3ccccn3)c21` [Example 500, 5-cyclopropyl-2-((1-methyl-7-(pyridin-2-yl)-1H-indol-5-yl)amino)nicotinic acid] it is 10 to 100 nM; for `Cn1ccc2cc(Nc3ncc(C4CC4)cc3C(=O)O)cc(C3=CCCCC3)c21` [Example 504] it is ≤ 10 nM.
Consider `O=C(O)c1cc(C2CC2)cnc1Nc1ccc2c(ccn2Cc2cccc(O)c2)c1` [Example 505, 5-cyclopropyl-2-((1-(3-hydroxybenzyl)-1H-indol-5-yl)amino)nicotinic acid], for which the IC50 was ≤ 10 nM.
For `COCCOc1cccc(Cn2ccc3cc(Nc4ncc(C5CC5)cc4C(=O)O)ccc32)c1` [Example 506, 5-cyclopropyl-2-((1-(3-(2-methoxyethoxyl)benzyl)-1H-indol-5-yl)amino)nicotinic acid], the IC50 was ≤ 10 nM.
The figure for `COC/C=C/c1cccc(Cn2ccc3cc(Nc4ncc(C5CC5)cc4C(=O)O)ccc32)c1` [Example 508, (E)-5-cyclopropyl-2-((1-(3-(3-methoxyprop-1-en-1-yl)benzyl)-1H-indol-5-yl)amino)nicotinic acid] is ≤ 10 nM; for `COCCCc1cccc(Cn2ccc3cc(Nc4ncc(C5CC5)cc4C(=O)O)ccc32)c1` [Example 509, 5-cyclopropyl-2-((1-(3-(3-methoxypropyl)benzyl)-1H-indol-5-yl)amino)nicotinic acid] it is ≤ 10 nM; for `COCCNc1cccc(Cn2ccc3cc(Nc4ncc(C5CC5)cc4C(=O)O)ccc32)c1` [Example 510, 5-cyclopropyl-2-((1-(3-((2-methoxyethyl)amino)benzyl)-1H-indol-5-yl)amino)nicotinic acid] it is ≤ 10 nM.
The figure for `COCCN(C)c1cccc(Cn2ccc3cc(Nc4ncc(C5CC5)cc4C(=O)O)ccc32)c1` [Example 511, 5-cyclopropyl-2-((1-(3-((2-methoxyethyl)(methyl)amino)benzyl)-1H-indol-5-yl)amino)nicotinic acid] is ≤ 10 nM; for `CC(C)n1ccc2ccc(Nc3ncc(C4CC4)cc3C(=O)O)cc21` [Example 519, 5-cyclopropyl-2-((1-isopropyl-1H-indol-6-yl)amino)nicotinic acid] it is 10 to 100 nM; for `CC(C)Cn1ccc2ccc(Nc3ncc(C4CC4)cc3C(=O)O)cc21` [Example 521, 5-cyclopropyl-2-((1-isobutyl-1H-indol-6-yl)amino)nicotinic acid] it is ≤ 10 nM.
The figure for `O=C(O)c1cc(C2CC2)cnc1Nc1ccc2ccn(-c3ccccc3)c2c1` [Example 525, 5-cyclopropyl-2-((1-phenyl-1H-indol-6-yl)amino)nicotinic acid] is ≤ 10 nM; for `O=C(O)c1cc(C2CC2)cnc1Nc1ccc2c(-c3ccccc3)nccc2c1` [Example 527, 5-cyclopropyl-2-((1-phenylisoquinolin-6-yl)amino)nicotinic acid] it is ≤ 10 nM.
Consider `O=C(O)c1cc(C2CC2)cnc1Nc1ccc2c(-c3ccccc3)ncnc2c1` [Example 529, 5-cyclopropyl-2-((4-phenylquinazolin-7-yl)amino)nicotinic acid], for which the IC50 was in the range of 10 to 100 nM.
As to `O=C(O)c1cc(C2CC2)cnc1Nc1cccc2c(-c3ccccc3)ncnc12` [Example 531, 5-cyclopropyl-2-((4-phenylquinazolin-8-yl)amino)nicotinic acid], the IC50 was 10 to 100 nM.
The figure for `O=C(O)c1cc(C2CC2)cnc1Nc1ccc2ncnc(-c3ccccc3)c2c1` [Example 533, 5-cyclopropyl-2-((4-phenylquinazolin-6-yl)amino)nicotinic acid] is 100 to 1000 nM.
Then `Cc1cn(CC(C)C)c2ccc(Nc3ncc(C4CC4)cc3C(=O)O)cc12` [Example 535, 5-cyclopropyl-2-((1-isobutyl-3-methyl-1H-indol-5-yl)amino)nicotinic acid], with ≤ 10 nM.
Take `O=C(O)c1cc(C2CC2)cnc1Nc1cccc2c1ccn2CC1CCCC1` [Example 537, 2-((1-(Cyclopentylmethyl)-1H-indol-4-yl)amino)-5-cyclopropylnicotinic acid]: the IC50 was ≤ 10 nM.
In the case of `O=C(O)c1cc(C2CC2)ccc1Nc1cccc2c1ccc(=O)n2-c1ccccc1` [Example 539, 5-cyclopropyl-2-((2-oxo-1-phenyl-1,2-dihydroquinolin-5-yl)amino)benzoic acid], the IC50 was ≤ 10 nM.
`CC(C)Cn1ncc2cc(Nc3ncc(C4CC4)cc3C(=O)O)ccc21` [Example 541, 5-cyclopropyl-2-((1-isobutyl-1H-indazol-5-yl)amino)nicotinic acid]: the IC50 is 10 to 100 nM.
Take `O=C(O)c1cc(C2CC2)cnc1Nc1cnc2c(ccn2Cc2ccccc2)c1` [Example 545, 2-((1-benzyl-1H-pyrrolo(2,3-b)pyridin-5-yl)amino)-5-cyclopropylnicotinic acid]: the IC50 is ≤ 10 nM.
In the case of `CC(C)Cn1ccc2cc(Nc3ncc(C4CC4)cc3C(=O)O)cnc21` [Example 547, 5-cyclopropyl-2-((1-isobutyl-1H-pyrrolo(2,3-b)pyridin-5-yl)amino)nicotinic acid], the IC50 fell in the range of 10 to 100 nM.
As for `O=C(O)c1cc(C2CC2)cnc1Nc1cnc2c(ccn2CC2CCCCC2)c1` [Example 549], the IC50 was ≤ 10 nM.
